Assay [1] concerns the target T1, cMET enzyme (amino acids 1023-1360) (Homo sapiens, UniProt P08581).
T1 construct: The cMET enzyme (amino acids 1023-1360) nominally at 24 μM was held at −80° C. until use; His tag (N, cleaved yes); made in house; host or cells: Sf9 cells
As to the kind of experiment: Determination of inhibition of cMET (capillary electrophoresis, phosphorylated peptide product). The assay is classed as biochemical. As to conditions: 1.2 nM cMET, 50 μM ATP, 2 μM FL-2 peptide, 2 hours room temperature. As for the experimental part:
The inhibitory property of a compound relative to cMET catalysis was determined by use of capillary electrophoresis with fluorescence quantification of a phosphorylated peptide product for cMET. The cMET enzyme (amino acids 1023-1360) nominally at 24 μM was held at −80° C. until use, in a buffer containing 25 mM Tris-HCl pH 8.5, 150 mM NaCl, 3 mM DTT and 10% glycerol. […] Following purification, the tag was removed and enzyme concentrated. […] To activate the enzyme fully, frozen cMET was thawed quickly and activated with the addition of assay buffer (50 mM HEPES pH 7.5, 10 mM NaCl, 10 mM MgCl2, 0.01% Brij® 35), 1.25 mM ATP, 5 mM MgCl2 and 5 mM DTT at a cMET concentration of 2.4 μM followed by a 30 minute incubation at room temperature. […] Next, cMET enzyme (1.2 nM final) was added and the system incubated at room temperature for 20 minutes. Catalysis was initiated by the addition of ATP (50 μM final). Assays were incubated at room temperature for 2 hours then quenched by the addition of EDTA. Phosphorylated peptide product was quantified by monitoring fluorescence during capillary electrophoresis with Caliper LifeSciences LabChip 3000 under the following settings: base pressure=−0.1 psi, screen pressure=−1.2 psi, downstream voltage=−500 V, upstream voltage=−2300 V, chip type=TC372. The elution buffer was identical to the assay buffer except for the absence of DTT, FL-2 and ATP and the addition of 0.1% coating reagent (Caliper). […] Peak height was quantified and used to determine enzyme velocities.
IC50 values were calculated by non-linear least squares curve fitting of the standard IC50 equation to background-corrected cMET velocity versus compound concentration.

In another assay the test system is MKN45. The assay can be described thus: Inhibition of cell viability (MTS), MKN45. The assay is classed as cell-based. Particulars: 96 hours incubation. As for the experimental part:
(§1) Cells were maintained at 37° C. in a humidified atmosphere containing 5%-8% CO2 following the instructions of the supplier (American Type Culture Collection (Rockville, Md.)). Inhibition of cell viability was determined for a panel of tumor cell lines (MKN45, EBC1 and A549), using the soluble tetrazolium salt, MTS (Promega, Madison, Wis.). Cells were seeded at 2,000-7,500 cells/well in 96-well tissue culture plates and were allowed to attach for approximately 24 hours prior to addition of compounds or DMSO vehicle. […] Cells were treated in duplicate with test compounds. Compounds were serially diluted (1:2.5) from column 1 to 11 and column 12 contained DMSO vehicle. Compounds were diluted into cell growth medium then compound solution was added to cells. Equal amounts of DMSO were added to cells (final concentration is 0.5%). After background correction and normalization against DMSO-treated cells, EC50 values were calculated using non-linear curve-fitting of the cell viability as a function of compound concentration. The MKN45 and EBC1 cell lines contain high levels of phospho-Met and are dependent on cMET for proliferation, whereas the A549 line is used as negative control.
(§2) EC50 values may be calculated by non-linear curve fitting of the compound concentrations and fluorescence intensities to the standard EC50 equation.

The next assay concerns EBC1. As to the kind of experiment: Inhibition of cell viability (MTS), EBC1. The assay is classed as cell-based. As to conditions: 96 hours incubation. As for the experimental part:
as §1, §2

In another assay the test system is A549. As to the kind of experiment: Inhibition of cell viability (MTS), A549 (negative control line). The assay is classed as cell-based. As to conditions: A549 cells (negative control), 96 hours incubation. As for the experimental part: as §1, §2
[2] abbreviates: Homo sapiens, MKN-45, 96 h, MKN45 cells.
Setting [3] is: Homo sapiens, EBC-1, 96 h, EBC1 cells.

Among the data in patent US8178534B2, “cMET inhibitors” (Takeda Pharmaceutical Company Limited, priority 2008, dated 2012) are IC50 and EC50 values, retold here.

Where a name gives a salt, the structure may show the parent alone. Bounds are passed on as bounds.

T1 sequence (P08581 1023-1360): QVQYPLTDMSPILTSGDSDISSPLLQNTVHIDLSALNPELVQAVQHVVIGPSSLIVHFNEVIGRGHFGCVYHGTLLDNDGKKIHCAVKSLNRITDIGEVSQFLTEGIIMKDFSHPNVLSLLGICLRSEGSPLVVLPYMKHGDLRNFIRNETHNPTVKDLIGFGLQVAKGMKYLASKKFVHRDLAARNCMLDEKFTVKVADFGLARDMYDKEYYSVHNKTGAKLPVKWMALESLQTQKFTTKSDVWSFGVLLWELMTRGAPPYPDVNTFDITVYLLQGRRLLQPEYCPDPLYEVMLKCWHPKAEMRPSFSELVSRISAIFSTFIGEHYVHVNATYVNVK

Broadly, the IC50 is the concentration that inhibits the measured activity by half. High values mean weaker potency in that assay, low ones greater potency in that assay. As usually defined, the EC50 is the concentration giving half of the maximal effect. In turn, `Cc1ccc2nnc(Sc3ccc4nc(NC(=O)C5CC5)cn4n3)n2c1` [Compound 42, N-(6-(6-methyl-[1,2,4]triazolo[4,3-a]pyridin-3-ylthio)imidazo[1,2-b]pyridazin-2-yl)cyclopropanecarboxamide] had an IC50 in assay [1] of 0.06 to 0.1 µM. Moreover, the EC50 with MKN45 (setting [2]) is 0.1 to 0.249 µM; in the assay with EBC1 (setting [3]) it was 0.035 to 0.099 µM; in the assay on A549 (Homo sapiens, A549, 96 h), over 50 µM.

`O=C(Nc1cn2nc(Cn3nnc4ccc(-c5cnn(C[C@@H](O)CO)c5)cc43)ccc2n1)C1CC1` [Compound 23] had a half-inhibitory concentration (IC50) in assay [1] of 0.03 to 0.059 µM. Besides, the EC50 with MKN45 (setting [2]) is 0.25 to 0.63 µM; in the assay with EBC1 (setting [3]) it was 0.1 to 0.199 µM; in the assay on A549 (Homo sapiens, A549, 96 h), over 50 µM.

Compound `CC(c1ccc2nc(NC(=O)C3CC3)cn2n1)c1nnc2ccc(-c3cn[nH]c3)cn12` (centres unmarked) [Compound 64, N-(6-(1-(6-(1H-pyrazol-4-yl)-[1,2,4]triazolo[4,3-a]pyridin-3-yl)ethyl)imidazo[1,2-b]pyridazin-2-yl)cyclopropanecarboxamide] registered an IC50 in assay [1] of under 0.03 µM. Moreover, the concentration giving a half-maximal response (EC50) is 0.1 to 0.249 µM with MKN45 (setting [2]); 0.1 to 0.249 µM in the assay on EBC1 (setting [3]); over 50 µM in the assay on A549 (Homo sapiens, A549, 96 h).

On to `CC(C)c1ccc2nnc(Sc3ccc4nc(NC(=O)C5CC5)cn4n3)n2c1` [Compound 26, N-(6-(6-isopropyl-[1,2,4]triazolo[4,3-a]pyridin-3-ylthio)imidazo[1,2-b]pyridazin-2-yl)cyclopropanecarboxamide], for which the IC50 in assay [1] was under 0.03 µM. For the same compound, the EC50 with MKN45 (setting [2]) was under 0.1 µM; in the assay on EBC1 (setting [3]), under 0.035 µM; with A549 (Homo sapiens, A549, 96 h), over 19.5 µM.

`O=C(Nc1cn2nc(Cn3nnc4ccc(-c5ccccc5)cc43)ccc2n1)C1CC1` [Compound 15] yielded an IC50 in assay [1] of 0.06 to 0.1 µM. Moreover, the EC50 in the assay on MKN45 (setting [2]) lay within 0.25 to 0.63 µM; in the assay with EBC1 (setting [3]), 0.1 to 0.199 µM; in the assay on A549 (Homo sapiens, A549, 96 h) it was 8 to 25 µM.

`CC(C)Oc1cccc(-c2ccc3nnc(C(F)(F)c4ccc5nc(NC(=O)C6CC6)cn5n4)n3c2)c1` [Compound 93, N-(6-(difluoro(6-(3-isopropoxyphenyl)-[1,2,4]triazolo[4,3-a]pyridin-3-yl)methyl)imidazo[1,2-b]pyridazin-2-yl)cyclopropanecarboxamide] registered an IC50 in assay [1] of 0.06 to 0.1 µM. Also, the EC50 in the assay on MKN45 (setting [2]) lay in the range of 0.03 to 0.059 µM; with EBC1 (setting [3]) it was 0.03 to 0.059 µM; in the assay with A549 (Homo sapiens, A549, 96 h) it was 8 to 25 µM.

Consider `CS(=O)(=O)c1cncc(-c2ccc3nnn(Cc4ccc5nc(NC(=O)C6CC6)cn5n4)c3c2)c1` [Compound 21], for which the IC50 in assay [1] is over 0.1 µM. Further, the EC50 is over 0.63 µM in the assay with MKN45 (setting [2]); over 0.2 µM in the assay on EBC1 (setting [3]); over 50 µM with A549 (Homo sapiens, A549, 96 h).

In assay [1], `CN(C)C(=O)Cn1cc(-c2ccc3nnc(Sc4ccc5nc(NC(=O)C6CC6)cn5n4)n3c2)cn1` [Compound 30, N-(6-(6-(1-(2-(dimethylamino)-2-oxoethyl)-1H-pyrazol-4-yl)-[1,2,4]triazolo[4,3-a]pyridin-3-ylthio)imidazo[1,2-b]pyridazin-2-yl)cyclopropanecarboxamide] had an IC50 of 0.03 to 0.059 µM. For the same compound, the EC50 in the assay on MKN45 (setting [2]) was over 0.63 µM; in the assay on EBC1 (setting [3]), over 0.2 µM; in the assay with A549 (Homo sapiens, A549, 96 h) it was over 19.5 µM.

For `COc1ccc(-c2ccc3nnc(C(F)(F)c4ccc5nc(NC(=O)C6CC6)cn5n4)n3c2)cn1` [Compound 86, N-(6-(difluoro(6-(6-methoxypyridin-3-yl)-[1,2,4]triazolo[4,3-a]pyridin-3-yl)methyl)imidazo[1,2-b]pyridazin-2-yl)cyclopropanecarboxamide], the IC50 in assay [1] was 0.03 to 0.059 µM. For the same compound, the EC50 in the assay on MKN45 (setting [2]) is under 0.03 µM; in the assay on EBC1 (setting [3]) it was under 0.03 µM; with A549 (Homo sapiens, A549, 96 h) it was over 50 µM.

As to `CC(C)c1ccc(-c2ccc3nnc(C(F)(F)c4ccc5nc(NC(=O)C6CC6)cn5n4)n3c2)cc1` [Compound 80, N-(6-(difluoro(6-(4-isopropylphenyl)-[1,2,4]triazolo[4,3-a]pyridin-3-yl)methyl)imidazo[1,2-b]pyridazin-2-yl)cyclopropanecarboxamide], in assay [1], the IC50 lay within 0.03 to 0.059 µM. The EC50 in the assay on MKN45 (setting [2]) is under 0.03 µM; in the assay with EBC1 (setting [3]) it was 0.03 to 0.059 µM; in the assay on A549 (Homo sapiens, A549, 96 h), over 50 µM.

`O=C(Nc1cn2nc(Sc3nnc4ccccn34)ccc2n1)C1CC1` [3 (free base), N-(6-([1,2,4]Triazolo[4,3-a]pyridin-3-ylthio)imidazo[1,2-b]pyridazin-2-yl)cyclopropanecarboxamide] came in with an IC50 in assay [1] of over 0.1 µM. Also, the EC50 in the assay on MKN45 (MKN45 cells) lay within 0.1 to 0.199 µM; with EBC1 (EBC1 cells), 0.06 to 0.1 µM; in the assay on A549 it was 8 to 25 µM.

As for `CC(c1ccc2nc(NC(=O)C3CC3)cn2n1)c1nnc2ccc(-c3cnn(C)c3)cn12` (centres unmarked) [49 (HCl Salt), N-(6-(1-(6-(1-methyl-1H-pyrazol-4-yl)-[1,2,4]triazolo[4,3-a]pyridin-3-yl)ethyl)imidazo[1,2-b]pyridazin-2-yl)cyclopropanecarboxamide], the IC50 in assay [1] is under 0.03 µM. The values for the EC50 with MKN45 (setting [2]), with EBC1 (setting [3]) and with A549 were 0.03 to 0.059 µM, under 0.03 µM and 8 to 25 µM, respectively.

`CC(C)(O)c1ccc2nnc(Sc3ccc4nc(NC(=O)C5CC5)cn4n3)n2c1` [Compound 40, N-(6-(6-(2-hydroxypropan-2-yl)-[1,2,4]triazolo[4,3-a]pyridin-3-ylthio)imidazo[1,2-b]pyridazin-2-yl)cyclopropanecarboxamide] came in with an IC50 in assay [1] of over 0.1 µM. Also, the EC50 in the assay with MKN45 (Homo sapiens, MKN-45, MKN45 cells) is over 0.63 µM; with EBC1 (Homo sapiens, EBC-1, EBC1 cells), over 0.2 µM; in the assay with A549 (Homo sapiens), over 50 µM.

In assay [1], `Cc1ccc2nnc(C(C)c3ccc4nc(NC(=O)C5CC5)cn4n3)n2c1` (centres unmarked) [Compound 53, N-(6-(1-(6-methyl-[1,2,4]triazolo[4,3-a]pyridin-3-yl)ethyl)imidazo[1,2-b]pyridazin-2-yl)cyclopropanecarboxamide] came in with an IC50 of 0.25 to 0.63 µM. The EC50 with MKN45 (setting [2]) is 0.25 to 0.63 µM; in the assay on EBC1 (setting [3]), 0.25 to 0.63 µM; in the assay on A549 (Homo sapiens, A549, 96 h) it was over 50 µM.

`CN(C)c1cccc(-c2ccc3nnc(C(F)(F)c4ccc5nc(NC(=O)C6CC6)cn5n4)n3c2)c1` [Compound 96, N-(6-((6-(3-(dimethylamino)phenyl)-[1,2,4]triazolo[4,3-a]pyridin-3-yl)difluoromethyl)imidazo[1,2-b]pyridazin-2-yl)cyclopropanecarboxamide]: the concentration for half-maximal inhibition (IC50) in assay [1] was under 0.03 µM. Also, the EC50 in the assay on MKN45 (setting [2]) is under 0.03 µM; with EBC1 (setting [3]), under 0.03 µM; in the assay on A549 (Homo sapiens, A549, 96 h), 8 to 25 µM.

As to `C[C@H](c1ccc2nc(NC(=O)C3CC3)cn2n1)c1nnc2ccc(-c3cnn(C)c3)cn12` [Compound 51, (R)—N-(6-(1-(6-(1-methyl-1H-pyrazol-4-yl)-[1,2,4]triazolo[4,3-a]pyridin-3-yl)ethyl)imidazo[1,2-b]pyridazin-2-yl)cyclopropanecarboxamide], the IC50 in assay [1] was over 0.1 µM. Further, the EC50 in the assay with MKN45 (setting [2]) is over 0.1 µM; with EBC1 (setting [3]) it was over 0.1 µM; in the assay with A549 (Homo sapiens, A549, 96 h), over 50 µM.

In the case of `CNC(=O)c1ccc(-c2ccc3nnc(Sc4ccc5nc(NC(=O)C6CC6)cn5n4)n3c2)cc1Cl` [Compound 28, 2-chloro-4-(3-(2-(cyclopropanecarboxamido)imidazo[1,2-b]pyridazin-6-ylthio)-[1,2,4]triazolo[4,3-a]pyridin-6-yl)-N-methylbenzamide], in assay [1], the IC50 was under 0.03 µM. Further, the EC50 was under 0.1 µM with MKN45 (setting [2]); under 0.035 µM with EBC1 (setting [3]); over 50 µM in the assay with A549 (Homo sapiens, A549, 96 h).
